Test results taken from patent publication US20250304923A1, “Novel HIV-1 Variants And Their Methods Of Use In An Animal Challenge Model” (priority 2022, published 2025).
Where two headings read alike, the source gives them in different places.

Experiments:
[1] = tested on: blood lymphocytes, NK cells, B cells, monocytes; test: Immune cell dynamics during dexamethasone administration (flow cytometry of blood); design: species or system owl monkeys; conditions: monkey, in vivo
Experimental: FIG. S8. […] In the top graph, the plasma viremia is reported for each of three animals over the course of the experiment. ND=no HIV-1 RNA detected. In the remainder of the rows, flow cytometry was performed on fresh Nancy Ma's owl monkey blood to enumerate the indicated cell types over the time course of infection. Antibodies: CD8 Invitrogen #MHCD0801; CD4 BD #550631; CD3 BD #563916 or #563918; CD20 BD #340941; CD16 BD #563892; CD14 BD #557923.
There are other data to support this. In a few animals, Applicants observe undetectable viremia after the acute phase, like elite controllers (one such animal shown in FIG. S29A). Set point viremia in these animals is below 80 HIV-1 RNA copies per mL, our assay LoQ.

[2] = design: species or system Nancy Ma's owl monkeys; conditions: monkey, in vivo
virus stocks = test: Susceptibility of virus stocks to post-exposure prophylaxis drugs (VELA Diagnostics); conditions: all virus stocks, prior to animal testing
Description: Virus stocks and biologic samples from infected animals were handled with biosafety level 3 operating procedures within a biosafety level 2 physical facility. […] This ensured that any research personnel, in case of accidental exposure to viruses or virus-exposed animals, could be successfully treated with standard post-exposure protocols if necessary.

Description for HIVnom: Two Nancy Ma's owl monkeys were intravenously injected with 1.3×10^6 infectious units of HIVnom1 and another two with 2.1×10^6 infectious units of HIVnom2 (FIG. 2a). Blood was drawn weekly for up to 30 weeks, with the “0” timepoint taken from the leg opposite to the site of virus injection five minutes after inoculation. Blood samples were sent to the University of Washington Clinical Retrovirology Laboratory (a human clinical diagnostics lab in Seattle, WA, USA) for determination of plasma viremia by RT-qPCR.
Treatment consisted of a once-daily subcutaneous injection. […] Study animals were maintained at 6 mg/kg for an additional 1-2 weeks.
Plasma vRNA quantification was performed by the commercial human diagnostic services at the University of Washington Retrovirology Laboratory (UWRL; Department of Laboratory Medicine, Seattle, WA, USA) using the Abbott RealTime HIV-1 RNA assay (Abbot #06L18-090) in conjunction with RT-qPCR instrumentation, practices, and procedures standard to that laboratory. Briefly, 500 μL of frozen EDTA owl monkey plasma were submitted for analysis and then diluted to 1 mL by the laboratory prior to processing. The range of vRNA quantitation for the assay is 40-10,000,000 HIV-1 genomes/mL when using undiluted samples, although the range of vRNA reported in this study was 80-20,000,000 HIV-1 genomes per mL due to the dilution required for the animal samples. The laboratory reported four possible outcomes: 1) virus detected and a vRNA quantification in HIV-1 genomes/mL; 2) virus detected but numbers were below the lower limit of quantification (<80 HIV-1 genomes/mL); 3) virus detected but the numbers were above the upper limit of quantification (>20 million HIV-1 genomes/mL); 4) virus not detected. The vRNA assay was performed for each animal prior to the start of the study, on the day of exposure (day 0), and on multiple days throughout the study (File S1).

With Dexamethasone sodium phosphate the “depletion of blood immune cells” value [1] was “reversibly depleting blood lymphocytes, NK cells, and B cells, but not monocytes”, the hypokalemia [2] was “mild hypokalemia noted to occur in some animals” and the “peak rebound viremia upon dexamethasone treatment” value (HIVnom; animal BO) was 92 HIVnom genomes per mL. For the same molecule, the “peak rebound viremia upon dexamethasone treatment” value (HIVnom; animal JI) was 258 HIVnom genomes per mL, the “peak rebound viremia upon dexamethasone treatment” value (HIVnom; animal KI) was 612 HIVnom genomes per mL and the “peak rebound viremia upon dexamethasone treatment” value (HIVnom; animal RI) was 18,220 HIVnom genomes per mL. For the same molecule, the “virus rebound in blood during dexamethasone treatment” value (HIVnom; three of the four animals infected with HIVnom1 or HIVnom2, subcutaneous, several weeks) was “virus rebounded into the blood to detectable levels”.
In the case of `C[C@H](Cn1cnc2c(N)ncnc21)OCP(=O)(O)O` [tenofovir], the “susceptibility of virus stocks to drug” value (virus stocks) is reported as “susceptible”.
In the case of `Nc1nc(=O)n([C@@H]2CS[C@H](CO)O2)cc1F` [emtricitabine], the “susceptibility of virus stocks to drug” value (virus stocks) is reported as “susceptible”.
In the case of `Cc1nnc(C(=O)NC(C)(C)c2nc(C(=O)NCc3ccc(F)cc3)c(O)c(=O)n2C)o1` [raltegravir], the “susceptibility of virus stocks to drug” value (virus stocks) is reported as “susceptible”.
